pIC50: −log10 of the molar value.
tested on: Dog Coronary Artery; assay: Dog coronary artery test: relaxation of KCl-contracted coronary artery rings; assay type: cell-based; conditions: Canis lupus familiaris, coronary artery rings contracted with 50 mM KCl, 37° C.; IC50 = 50% relaxation; mean values, probit analysis
Procedure: Mongrel dogs of either sex and weighing 15 to 30 kg were anesthetized with pentobarbital (35 mg/kg). Each heart was quickly removed through a right thoracotomy and placed in Kreb's bicarbonate solution of the following composition (mM/L): NaCl, 118.2; KCl, 4.6; CaCl2.2H2 O, 1.6; KH2 PO4, 1.2; MgSO4.7H2 O, 1.2; NaHCO3, 24.8; and dextrose, 10.0. The medium was kept at room temperature and saturated with 95% O2 /5% CO2. The left anterior descending and circumflex coronary arteries were isolated and used either immediately or stored overnight at 5° C. Arteries were cut into rings approximately 2 to 3 mm wide, placed on 2 L-shaped hooks and mounted in a 10 ml organ bath by attaching one hook to a stationary glass rod and the other hook to a force-displacement transducer. Tissue medium consisted of Kreb's bicarbonate solution maintained at 37° C. and bubbled with 95 % O2 /5% CO2. Artery rings were equilibrated for 1-2 hours under a resting tension of 3 g. Tissue medium was then changed to one containing 50 mM KCl and 72.8 mM NaCl but otherwise identical to Kreb's bicarbonate solution. After tissues achieved a steady state contractile tension (1-2 hours) a given test agent was added to each bath and concentration-response curves determined. […] At the end of the concentration-response curve, tissue medium was changed to one identical to the 50 mM KCl buffer but containing 2.5 mM EGTA and no CaCl2.2H2 O to obtain complete relaxation of the tissue. Percent relaxation was then determined for each concentration and values producing 50% relaxation (IC50) were estimated using a probit analysis.

Row | Structure (SMILES) | pIC50
1 | CCOC(=O)C1=C(C)NC(C)=C(C(=O)OCC)C1c1cc2ccccc2s1 [Example 1, 4-Benzo[b]thien-2-yl-1,4-dihydro-2,6-dimethyl-3,5-pyridinedicarboxylic acid, diethyl ester] | 3.96
2 | CCOC(=O)C1=C(C)NC(C)=C(C(=O)OCC)C1c1cc2cnccc2s1 [Example 2, 1,4-Dihydro-2,6-dimethyl-4-(thieno[3,2-c]pyridin-2-yl)-3,5-pyridinedicarboxylic acid, diethyl ester] | 4.97
3 | CCOC(=O)C1=C(C)NC(C)=C(C(=O)OCC)C1c1csc2ccccc12 [Example 3, 4-Benzo[b]thien-3-yl-1,4-dihydro-2,6-dimethyl-3,5-pyridinedicarboxylic acid, diethyl ester] | 7.10
4 | CCOC(=O)C1=C(C)NC(C)=C(C(=O)OCC)C1c1csc2ccc(Cl)cc12 [Example 4, 4-(5-Chlorobenzo[b]thien-3-yl)-1,4-dihydro-2,6-dimethyl-3,5-pyridinedicarboxylic acid, diethyl ester] | 5.50
5 | CCOC(=O)C1=C(C)NC(C)=C(C(=O)OCC)C1c1c(C)sc2ccncc12 [Example 6, 1,4-Dihydro-2,6-dimethyl-4-(2-methylthieno[3,2-c]pyridin-3-yl)-3,5-pyridinedicarboxylic acid, diethyl ester] | 6.40
6 | CC1=C(C(=O)OC(C)C)C(c2csc3ccncc23)C(C(=O)OC(C)C)=C(C)N1 [Example 7, 1,4-Dihydro-2,6-dimethyl-4-thieno[3,2-c]pyridin-3-yl-3,5-pyridinedicarboxylic acid, diisopropyl ester] | 6.40
7 | COCCOC(=O)C1=C(C)NC(C)=C(C(=O)OCCOC)C1c1csc2ccncc12 [Example 8, 1,4-Dihydro-2,6-dimethyl-4-thieno[3,2-c]pyridin-3-yl-3,5-pyridinedicarboxylic acid, bis(2-methoxyethyl)ester] | 6.30
8 | COC(=O)C1=C(C)NC(C)=C(C(=O)OC)C1c1csc2ccncc12 [Example 9, 1,4-Dihydro-2,6-dimethyl-4-thieno[3,2-c]pyridin-3-yl-3,5-pyridinedicarboxylic acid, dimethyl ester] | 7.00
9 | CCCOC(=O)C1=C(C)NC(C)=C(C(=O)OCCC)C1c1csc2ccncc12 [Example 10, 1,4-Dihydro-2,6-dimethyl-4-thieno[3,2-c]pyridin-3-yl-3,5-pyridinedicarboxylic acid, dipropyl ester] | 6.60
10 | CCOC(=O)C1=C(C)NC(C)=C(C(=O)OCC)C1c1csc2cccnc12 [Example 11, 1,4-Dihydro-2,6-dimethyl-4-thieno[3,2-b]pyridin-3-yl-3,5-pyridinedicarboxylic acid, diethyl ester] | 6.90
11 | CCOC(=O)C1=C(C)NC(C)=C(C(=O)OCC)C1c1csc2cnccc12 [Example 12, 1,4-Dihydro-2,6-dimethyl-4-thieno[2,3-c]pyridin-3-yl-3,5-pyridinedicarboxylic acid, diethyl ester] | 7.39
12 | CCOC(=O)C1=C(C)NC(C)=C(C(=O)OCC)C1c1csc2ncccc12 [Example 13, 1,4-Dihydro-2,6-dimethyl-4-thieno[2,3-b]pyridin-3-yl-3,5-pyridinedicarboxylic acid, diethyl ester] | 6.06
13 | CCOC(=O)C1=C(C)NC(C)=C(C(=O)OCC)C1c1csc2c(C)nccc12 [Example 14, 1,4-Dihydro-2,6-dimethyl-4-(7-methylthieno[2,3-c]pyridin-3-yl)-3,5-pyridinedicarboxylic acid, diethyl ester] | 5.50
14 | CCOC(=O)C1=C(C)NC(C)=C(C(=O)OCC)C1c1c(SC)sc2ccccc12 [Example 15, 1,4-Dihydro-2,6-dimethyl-4-[2-(methylthio)benzo[b]thien-3-yl]-3,5-pyridinedicarboxylic acid, diethyl ester] | 5.56
15 | CCOC(=O)C1=C(C)NC(C)=C(C(=O)OCC)C1c1c(C)sc2ccccc12 [Example 16, 1,4-Dihydro-2,6-dimethyl-4-(2-methylbenzo[b]thien-3-yl)-3,5-pyridinedicarboxylic acid, diethyl ester] | 6.39
16 | CCOC(=O)C1=C(C)NC(C)=C(C(=O)OC(C)C)C1c1csc2ccncc12 (stereo not drawn) [Example 17, 1,4-Dihydro-2,6-dimethyl-4-thieno[3,2-c]pyridin-3-yl-3,5-pyridinedicarboxylic acid, 3-ethyl 5-isopropyl ester] | 7.08

Row | Structure (SMILES) | pIC50
17 | CCOC(=O)C1=C(C)NC(C)=C(C(=O)OCCN(C)Cc2ccccc2)C1c1csc2ccccc12 (stereo not drawn) [Example 18, 4-Benzo[b]thien-3-yl-1,4-dihydro-2,6-dimethyl-3,5-pyridinedicarboxylic acid, 3-ethyl 5-(2-[methyl(phenylmethyl)amino]ethyl)ester] | 5.46
18 | COC(=O)C1=C(C)NC(C)=C(C(=O)OC(C)C)C1c1csc2ccncc12 (stereo not drawn) [Example 20, 1,4-Dihydro-2,6-dimethyl-4-thieno[3,2-c]pyridin-3-yl-3,5-pyridinedicarboxylic acid, 3-methyl 5-isopropyl ester] | 7.80
19 | COCCOC(=O)C1=C(C)NC(C)=C(C(=O)OC)C1c1csc2ccncc12 (stereo not drawn) [Example 21, 1,4-Dihydro-2,6-dimethyl-4-thieno[3,2-c]pyridine-3-yl-3,5-pyridinedicarboxylic acid, 3-methyl 5-(2-methoxyethyl)ester] | 7.21
20 | CCOC(=O)C1=C(C)NC(C)=C(C(=O)OCC)C1c1csc2ccc(Br)cc12 [Example 22, 4-(5-Bromobenzo[b]thien-3-yl)-1,4-dihydro-2,6-dimethyl-3,5-pyridinedicarboxlic acid, diethyl ester] | 4.40
21 | CCOC(=O)C1=C(C)NC(C)=C(C(=O)OCC)C1c1c(Br)sc2ccccc12 [Example 23, 4-(2-Bromobenzo[b]thien-3-yl)-1,4-dihydro-2,6-dimethyl-3,5-pyridinedicarboxylic acid, diethyl ester] | 5.15
22 | CCOC(=O)C1=C(C)NC(C)=C(C(=O)OCC)C1c1nccc2ccsc12 [Example 24, 1,4-Dihydro-2,6-dimethyl-4-thieno[2,3-c]pyridin-7-yl-3,5-pyridinedicarboxylic acid, diethyl ester] | 7.08
23 | CCOC(=O)C1=C(C)NC(C)=C(C(=O)OCC)C1c1csc2c([N+](=O)[O-])cccc12 [Example 25, 1,4-Dihydro-2,6-dimethyl-4-(7-nitrobenzo[b]thien-3-yl)-3,5-pyridinedicarboxylic acid, diethyl ester] | 5.77
24 | CCOC(=O)C1=C(C)NC(C)=C(C(=O)OCC)C1c1csc2ccc([N+](=O)[O-])cc12 [Example 26, 1,4-Dihydro-2,6-dimethyl-4-(5-nitrobenzo[b]thien-3-yl)-3,5-pyridinedicarboxylic acid, diethyl ester] | 6.64
25 | CCOC(=O)C1=C(C)NC(C)=C(C(=O)OCC)C1c1csc2cc([N+](=O)[O-])ccc12 [Example 27, 1,4-Dihydro-2,6-dimethyl-4-(6-nitrobenzo[b]thien-3-yl)-3,5-pyridinedicarboxylic acid, diethyl ester] | 6.69
26 | CCOC(=O)C1=C(C)NC(C)=C(C(=O)OCC)C1c1csc2cccc([N+](=O)[O-])c12 [Example 28, 1,4-Dihydro-2,6-dimethyl-4-(4-nitrobenzo[b]thien-3-yl)-3,5-pyridinecarboxylic acid, diethyl ester] | 6.81
27 | CCOC(=O)C1=C(C)NC(C)=C(C(=O)OCC)C1c1csc2cc(N)ccc12 [Example 29, 4-(6-Aminobenzo[b]thien-3-yl)-1,4-dihydro-2,6-dimethyl-3,5-pyridinecarboxylic acid, diethyl ester] | 5.87
28 | COC(=O)C1=C(C)NC(C)=C(C(=O)OCCN(C)Cc2ccccc2)C1c1csc2ccncc12 (stereo not drawn) [Example 31, 1,4-Dihydro-2,6-dimethyl-4-thieno[3,2-c]pyridin-3-yl-3,5-pyridine dicarboxylic acid, 3-methyl 5-(2-[methyl(phenylmethyl)amino]ethyl)ester] | 6.90
29 | CC1=C(C(=O)OCCN(C)Cc2ccccc2)C(c2csc3ccccc23)C(C(=O)OCCN(C)Cc2ccccc2)=C(C)N1 [Example 32] | 4.67
30 | CCOC(=O)C1=C(C)NC(C)=C(C(=O)OC)C1c1csc2ccncc12 (stereo not drawn) [Example 33, 1,4-Dihydro-2,6-dimethyl-4-thieno[3,2-c]pyridin-3-yl-3,5-pyridinedicarboxylic acid, ethyl methyl ester] | 7.52
31 | COC(=O)C1=C(C)NC(C)=C(C(=O)OCCC#N)C1c1csc2ccncc12 (stereo not drawn) [Example 34, 1,4-Dihydro-2,6-dimethyl-4-thieno[3,2-c]pyridin-3-yl-3,5-pyridinedicarboxylic acid, 2-cyanoethyl methyl ester] | 6.50

same assay, conditions: coronary artery rings contracted with 50 mM KCl, 37° C.; IC50 = 50% relaxation; mean values, probit analysis

Row | Structure (SMILES) | -log IC50
32 | CCOC(=O)C1=C(C)NC(C)=C(C(=O)OCC)C1c1csc2ccncc12 [Example 5, 1,4-Dihydro-2,6-dimethyl-4-thieno[3,2-c]pyridin-3-yl-3,5-pyridinedicarboxylic acid, diethyl ester] | 7.55
33 | CCOC(=O)C1=C(C)NC(C)=C(C(=O)OCCOC)C1c1csc2cccnc12 (stereo not drawn) [Example 19, 1,4-Dihydro-2,6-dimethyl-4-thieno[3,2-]pyridin-3-yl-3,5-pyridinedicarboxylic acid, 3-ethyl 5-(2-methoxyethyl)ester] | 7.0

From US4659717A, “Dihydropyridines useful in the treatment of angina and stroke” (Eli Lilly and Company, priority 1985, dated 1987)
